Reference: ChEMBL document CHEMBL3745645, “Synthesis, in vitro antitumor activity, dihydrofolate reductase inhibition, DNA intercalation and structure-activity relationship studies of 1,3,5-triazine analogues” (Bioorg Med Chem Lett, 2016)
The source made the active and inactive calls. The rule behind the calls is not given here.

Tests used:
Format in all cases: functional
[1] = Cytotoxicity against human BT549 cells at 10 uM after 48 hrs by SRB assay; details: BT-549, 48 h, read-out: GI
[2] = test system: SR; experiment: Cytotoxicity against human SR cells at 10 uM after 48 hrs by SRB assay; details: read-out: GI
[3] = test system: U-251; experiment: Cytotoxicity against human U251 cells at 10 uM after 48 hrs by SRB assay
[4] = test system: HT-29; experiment: Cytotoxicity against human HT-29 cells at 10 uM after 48 hrs by SRB assay; details: HT-29, 48 h, read-out: GI
[5] = Cytotoxicity against human HCT116 cells at 10 uM after 48 hrs by SRB assay; details: HCT-116, 48 h, read-out: GI
[6] = test system: TK-10; experiment: Cytotoxicity against human TK10 cells at 10 uM after 48 hrs by SRB assay
[7] = test system: ACHN; experiment: Cytotoxicity against human ACHN cells at 10 uM after 48 hrs by SRB assay; details: read-out: GI
[8] = test system: SN12C; experiment: Cytotoxicity against human SN12C cells at 10 uM after 48 hrs by SRB assay; details: read-out: GI
[9] = test system: 786-0; experiment: Cytotoxicity against human 786-0 cells at 10 uM after 48 hrs by SRB assay; details: 786-0, 48 h, read-out: GI
[10] = test system: SK-MEL-5; experiment: Cytotoxicity against human SK-MEL-5 cells at 10 uM after 48 hrs by SRB assay; details: SK-MEL-5, 48 h, read-out: GI
[11] = test system: MDA-MB-468; experiment: Cytotoxicity against human MDA-MB-468 cells at 10 uM after 48 hrs by SRB assay; details: MDA-MB-468, 48 h, read-out: GI
[12] = Cytotoxicity against human COLO205 cells at 10 uM after 48 hrs by SRB assay; details: COLO 205, 48 h, read-out: GI
[13] = test system: NCI-H226; experiment: Cytotoxicity against human NCI-H226 cells at 10 uM after 48 hrs by SRB assay; details: NCI-H226, 48 h, read-out: GI
[14] = Cytotoxicity against human HOP62 cells at 10 uM after 48 hrs by SRB assay; details: HOP-62, 48 h, read-out: GI
[15] = test system: MDA-MB-435; experiment: Cytotoxicity against human MDA-MB-435 cells at 10 uM after 48 hrs by SRB assay; details: MDA-MB-435, 48 h, read-out: GI
[16] = Cytotoxicity against human UO31 cells at 10 uM after 48 hrs by SRB assay; details: UO-31, 48 h, read-out: GI
[17] = Cytotoxicity against human Caki1 cells at 10 uM after 48 hrs by SRB assay; details: CAKI-1, 48 h, read-out: GI
[18] = Cytotoxicity against human SNB19 cells at 10 uM after 48 hrs by SRB assay; details: SNB-19, 48 h, read-out: GI
[19] = test system: Malme-3M; experiment: Cytotoxicity against human MALME-3M cells at 10 uM after 48 hrs by SRB assay
[20] = Cytotoxicity against human HCT15 cells at 10 uM after 48 hrs by SRB assay; details: HCT-15, 48 h, read-out: GI
[21] = test system: A549; experiment: Cytotoxicity against human A549 cells at 10 uM after 48 hrs by SRB assay; details: A549, 48 h, read-out: GI
[22] = Cytotoxicity against human LOXIMVI cells at 10 uM after 48 hrs by SRB assay; details: LOX IMVI, read-out: GI
[23] = test system: M14; experiment: Cytotoxicity against human M14 cells at 10 uM after 48 hrs by SRB assay
[24] = test system: MCF7; experiment: Cytotoxicity against human MCF7 cells at 10 uM after 48 hrs by SRB assay; details: MCF7, 48 h, read-out: GI
[25] = test system: SK-OV-3; experiment: Cytotoxicity against human SKOV3 cells at 10 uM after 48 hrs by SRB assay
[26] = Cytotoxicity against human SF539 cells at 10 uM after 48 hrs by SRB assay; details: SF-539, 48 h, read-out: GI
[27] = Cytotoxicity against human HOP92 cells at 10 uM after 48 hrs by SRB assay; details: HOP-92, 48 h, read-out: GI
[28] = Cytotoxicity against human SF295 cells at 10 uM after 48 hrs by SRB assay; details: SF-295, 48 h, read-out: GI
[29] = test system: MDA-MB-231; experiment: Cytotoxicity against human MDA-MB-231 cells at 10 uM after 48 hrs by SRB assay; details: MDA-MB-231, 48 h, read-out: GI
[30] = test system: KM12; experiment: Cytotoxicity against human KM12 cells at 10 uM after 48 hrs by SRB assay
[31] = Cytotoxicity against human SF268 cells at 10 uM after 48 hrs by SRB assay; details: SF-268, 48 h, read-out: GI
[32] = test system: K562; experiment: Cytotoxicity against human K562 cells at 10 uM after 48 hrs by SRB assay; details: K562, 48 h, read-out: GI
[33] = test system: HL-60(TB); experiment: Cytotoxicity against human HL-60(TB) cells at 10 uM after 48 hrs by SRB assay
[34] = Cytotoxicity against human NCI-ADR-RES cells at 10 uM after 48 hrs by SRB assay; details: read-out: GI
[35] = test system: T47D; experiment: Cytotoxicity against human T47D cells at 10 uM after 48 hrs by SRB assay; details: read-out: GI
[36] = Cytotoxicity against human IGROV1 cells at 10 uM after 48 hrs by SRB assay; details: IGROV-1, 48 h, read-out: GI
[37] = test system: NCI-H460; experiment: Cytotoxicity against human NCI-H460 cells at 10 uM after 48 hrs by SRB assay
[38] = test system: NCI-H522; experiment: Cytotoxicity against human NCI-H522 cells at 10 uM after 48 hrs by SRB assay; details: NCI-H522, 48 h, read-out: GI
[39] = Cytotoxicity against human SW620 cells at 10 uM after 48 hrs by SRB assay; details: SW-620, 48 h, read-out: GI
[40] = test system: DU-145; experiment: Cytotoxicity against human DU145 cells at 10 uM after 48 hrs by SRB assay
[41] = Cytotoxicity against human Hs 578T cells at 10 uM after 48 hrs by SRB assay; details: read-out: GI
[42] = test system: HCC 2998; experiment: Cytotoxicity against human HCC2998 cells at 10 uM after 48 hrs by SRB assay
[43] = test system: SK-MEL-28; experiment: Cytotoxicity against human SK-MEL-28 cells at 10 uM after 48 hrs by SRB assay
[44] = test system: A498; experiment: Cytotoxicity against human A498 cells at 10 uM after 48 hrs by SRB assay; details: A498, 48 h, read-out: GI
[45] = Cytotoxicity against human PC3 cells at 10 uM after 48 hrs by SRB assay; details: PC-3, 48 h, read-out: GI
[46] = Cytotoxicity against human OVCAR5 cells at 10 uM after 48 hrs by SRB assay; details: OVCAR-5, 48 h, read-out: GI
[47] = Cytotoxicity against human OVCAR8 cells at 10 uM after 48 hrs by SRB assay; details: OVCAR-8, 48 h, read-out: GI
[48] = Cytotoxicity against human OVCAR4 cells at 10 uM after 48 hrs by SRB assay; details: OVCAR-4, 48 h, read-out: GI
[49] = Cytotoxicity against human OVCAR3 cells at 10 uM after 48 hrs by SRB assay; details: OVCAR-3, 48 h, read-out: GI
[50] = test system: CCRF-CEM; experiment: Cytotoxicity against human CCRF-CEM cells at 10 uM after 48 hrs by SRB assay; details: read-out: GI
[51] = Cytotoxicity against human UACC257 cells at 10 uM after 48 hrs by SRB assay; details: UACC-257, 48 h, read-out: GI
[52] = test system: RXF 393; experiment: Cytotoxicity against human RXF393 cells at 10 uM after 48 hrs by SRB assay
[53] = Cytotoxicity against human UACC62 cells at 10 uM after 48 hrs by SRB assay; details: UACC-62, 48 h, read-out: GI
[54] = Cytotoxicity against human MOLT4 cells at 10 uM after 48 hrs by SRB assay; details: MOLT-4, 48 h, read-out: GI
[55] = test system: SK-MEL-2; experiment: Cytotoxicity against human SK-MEL-2 cells at 10 uM after 48 hrs by SRB assay
[56] = Cytotoxicity against human RPMI8226 cells at 10 uM after 48 hrs by SRB assay; details: RPMI-8226, 48 h, read-out: GI
[57] = Cytotoxicity against human SNB75 cells at 10 uM after 48 hrs by SRB assay; details: SNB-75, 48 h, read-out: GI

Q: Which results are given for Cc1nc2cc(Nc3nc(Nc4ccc(F)cc4)nc(Nc4ccc(F)cc4)n3)ccc2n1Cc1ccccc1?
A: inhibition of growth at 10 µM [1]: 5.26%; inhibition of growth at 10 µM [2]: 18.6%; growth inhibition (GI) [3]: inactive; inhibition of growth at 10 µM [4]: 1.3%; inhibition of growth at 10 µM [5]: 12.2%; growth inhibition (GI) [6]: inactive; inhibition of growth at 10 µM [7]: 7.88%; inhibition of growth at 10 µM [8]: 5.75%; inhibition of growth at 10 µM [9]: 13.2%; inhibition of growth at 10 µM [10]: 1.09%; inhibition of growth at 10 µM [11]: 9.45%; inhibition of growth at 10 µM [12]: 2.84%; inhibition of growth at 10 µM [13]: 13.8%; inhibition of growth at 10 µM [14]: 8.91%; inhibition of growth at 10 µM [15]: 0.94%; inhibition of growth at 10 µM [16]: 39.3%; inhibition of growth at 10 µM [17]: 10.1%; inhibition of growth at 10 µM [18]: 3.99%; growth inhibition (GI) [19]: inactive; inhibition of growth at 10 µM [20]: 10.8%; inhibition of growth at 10 µM [21]: 8.48%; inhibition of growth at 10 µM [22]: 7.8%; growth inhibition (GI) [23]: inactive; inhibition of growth at 10 µM [24]: 11.5%; growth inhibition (GI) [25]: inactive; inhibition of growth at 10 µM [26]: 10.4%; inhibition of growth at 10 µM [27]: 37.6%; inhibition of growth at 10 µM [28]: 8.21%; inhibition of growth at 10 µM [29]: 24.5%; growth inhibition (GI) [30]: inactive; inhibition of growth at 10 µM [31]: 3.68%; inhibition of growth at 10 µM [32]: 18.6%; growth inhibition (GI) [33]: inactive; inhibition of growth at 10 µM [34]: 10.6%; inhibition of growth at 10 µM [35]: 10.7%; inhibition of growth at 10 µM [36]: 16.9%; growth inhibition (GI) [37]: inactive; inhibition of growth at 10 µM [38]: 14.2%; inhibition of growth at 10 µM [39]: 3.96%; growth inhibition (GI) [40]: inactive; inhibition of growth at 10 µM [41]: 10.4%; growth inhibition (GI) [42]: inactive; growth inhibition (GI) [43]: inactive; inhibition of growth at 10 µM [44]: 21.9%; inhibition of growth at 10 µM [45]: 23.2%; inhibition of growth at 10 µM [46]: 4.24%; inhibition of growth at 10 µM [47]: 9.21%; inhibition of growth at 10 µM [48]: 14.4%; inhibition of growth at 10 µM [49]: 4.79%; inhibition of growth at 10 µM [50]: 10.6%; inhibition of growth at 10 µM [51]: 3.11%; growth inhibition (GI) [52]: inactive; inhibition of growth at 10 µM [53]: 10.2%; inhibition of growth at 10 µM [54]: 15.2%; growth inhibition (GI) [55]: inactive; inhibition of growth at 10 µM [56]: 14.3%; inhibition of growth at 10 µM [57]: 24.8%
